Measured values taken from patent US8614091B2, “PNMT as a novel marker for progenitor cells” (priority 2004, dated 2013).
“Also recorded” adds a separate entry of the source.

Experiments:
Dbh-/- embryos = settings: DOPS in the maternal drinking water; cited from earlier work
[1] = test system: neonatal rat cardiomyocytes; assay: Beating rate measurements in cultured neonatal rat cardiomyocytes; type: cell-based; settings: for decrease in the beating rate: acute, spontaneously beating cultures after 7 d; for effect on beating rate, acute treatment: increasing concentrations, within seconds to 1-2 min after drug application, normal serum
Experimental: D) Preparation of rat neonatal cardiomyocyte cultures. […] The heart was immediately removed under aseptic conditions and placed in ice-cold sterile HBSS (no Ca^++ or Mg^++). Enzymatic and mechanical dissociation of cardiomyocytes was then performed using the Neonatal Cardiomyocyte Isolation System supplied by Worthington Biochemicals (Freehold, N.J., U.S.A.). The hearts were minced on ice and digested overnight at 4° C. with purified trypsin (10 μg/mL) in HBSS. On the following morning, the digested tissue was transferred to a 50-mL conical tube and purified soybean trypsin inhibitor (40 μg/mL) was added to terminate trypsinization. The tissue was oxygenated and warmed to 37° C. […] C. with intermittent gentle swirling. Mild trituration was then used to mechanically dissociate the digested tissue, and single-cell suspensions were obtained by filtering this digested material through 70 μm sterile mesh filters. The cells were collected by low-speed centrifugation. The supernatant was discarded and the cell pellet resuspended in DMEM (high glucose, Biofluids, Rockville, Md., U.S.A.) culture medium containing 10% defined iron-supplemented bovine calf serum (Hyclone Laboratories, Logan, Utah, U.S.A.), 2 mM glutamine, and gentamicin sulfate (50 μg/mL). In some experiments, the serum was pretreated with charcoal before adding it to the media (10% volume as above) to remove possible trace amounts of catecholamines that may have been present The cells were then “preplated” to remove fibroblasts, and the remaining cells counted and seeded onto multi-well culture plates at a density of 75,000 cells per cm^2. The media was changed every 2-3 d beginning the day after seeding. Bromodeoxyuridine (0.1 mM) was added to the culture media for the first 3 d to further minimize contamination from fibroblasts.
E) Beating rate measurements. Beating activity of cultured cardiomyocytes was measured by edge-detection using photodiode sensors attached to a monitor screen depicting beating cells viewed by videomicroscopy. […] The photodiode sensor signal was filtered with an 8-pole Bessel low-pass filter (Model 900CT, Frequency Devices, Inc., Havervill, Mass., U.S.A.) with a cutoff frequency of 1000 Hz, and relayed to a PC equipped with a National Instruments data acquisition board and LabView 4.0 processing software. Parallel outputs were also directed to a Gould TA550 chart recorder and an oscilloscope. Data were continuously acquired and stored to disk for later analysis. Drugs were added and immediately mixed in the media overlying the cells in each well. Predrug (baseline) measurements were performed first, and the indicated drug(s) were added as a 100× stock to the preexisting media on each well, and rapidly mixed. Beating rates were remeasured within 2-3 min after drug addition.
F) Data analysis. The number of beating rate measurements was typically obtained from different wells of multi-well plates (usually six wells per plate), seeded from the same preparation of myocytes. Measurements were obtained immediately before and after the addition of specified drugs. In the reserpine experiment, beating rate measurements were obtained at multiple time-points after drug administration. Each experiment was replicated at least twice using independently isolated cultures, and a representative result from each is shown. Unless otherwise indicated, all beating rate measurements were performed on cells that had been cultured for 7-9 d. All data are expressed as mean.+−.SEM. Statistical significance was assessed by one-way ANOVA, with p<0.05 required to reject the null hypothesis. Posthoc testing was performed using Bonferroni's correction for multiple comparisons.

Compound: N[C@H](C(=O)O)[C@H](O)c1ccc(O)c(O)c1 [DOPS]
- rescue of Dbh-/- embryos that die of cardiovascular failure in utero (Dbh-/- embryos): rescued

Compound: CNC[C@H](O)c1cccc(O)c1 [L-phenylephrine]
- reversal of prazosin-induced decrease in beating rate ([1]; L-phenylephrine at increasing concentrations, in presence of prazosin 1 μM, charcoal-stripped serum): dose-dependent reversal; also recorded: reversed

Compound: CNC[C@H](O)c1ccc(O)c(O)c1 [epinephrine]
- rescue of timolol-suppressed beating rate in charcoal-stripped serum media ([1]; epinephrine 1 μM added in presence of timolol 10 μM): fully rescued; also recorded: full recovery of beating rate
- duration of recovery of beating rate ([1]; epinephrine 1 μM in presence of timolol 10 μM, charcoal-stripped serum): 30 to 60 min

Compound: NC[C@H](O)c1ccc(O)c(O)c1 [norepinephrine]
- reversal of reserpine-induced decrease in beating rate ([1]; NE 1 μM, about 2 min after addition, after 8 h of reserpine 2.5 μM): largely reversed

Compound: COc1cc2nc(N3CCN(C(=O)c4ccco4)CC3)nc(N)c2cc1OC [prazosin]
- decrease in the beating rate ([1]; 1 μM prazosin): ~25%
- decrease in the beating rate ([1]; 10 μM prazosin): > 85%
- effect on beating rate, acute treatment [1]: dose-dependent decreases in the beating rate
- effect on beating rate in media with charcoal-stripped serum ([1]; prazosin 1 μM vs baseline control): significant decreases in beating rates; also recorded: significant reduction in the beating rate

Compound: COC(=O)[C@H]1[C@H]2C[C@@H]3c4[nH]c5cc(OC)ccc5c4CCN3C[C@H]2C[C@@H](OC(=O)c2cc(OC)c(OC)c(OC)c2)[C@@H]1OC [reserpine]
- effect on beating rate, catecholamine depletion ([1]; increasing concentrations of reserpine, measured up to 8 h): Significant dose-dependent decreases in beating rates

Compound: CC(C)(C)NC[C@H](O)COc1nsnc1N1CCOCC1 [timolol]
- effect on beating rate, acute treatment [1]: significant concentration-dependent slowing in the beating rate
- effect on beating activity in media with charcoal-stripped serum ([1]; timolol 10 μM, continuous, assessed at 24 and 72 h): strongly suppressed beating activity
